Measured values: the NIST ThermoML archive (doi:10.1016/j.jct.2010.12.021)
Numbers after ± are expanded uncertainties.

Experiments:
[1] = for viscosity / mass density: 101.33 kPa, Liquid; for viscosity: Falling or rolling sphere viscometry; for mass density: Vibrating tube method
[2] = Molar enthalpy of transition or fusion; conditions: Crystal; DSC

Structure (SMILES): CCCCCC[n+]1cccc2ccccc21.O=S(=O)([N-]S(=O)(=O)C(F)(F)F)C(F)(F)F [1-hexylquinolinium bis(trifluoromethylsulfonyl)amide]
- viscosity ([1]; 323.15 K): 100.1 ± 2.5 mPa·s
- mass density ([1]; 323.15 K): 1365.94 ± 1.7 kg/m3
- viscosity ([1]; 328.15 K): 77.97 ± 1.4 mPa·s
- mass density ([1]; 328.15 K): 1361.65 ± 1.7 kg/m3
- viscosity ([1]; 333.15 K): 61.78 ± 0.76 mPa·s
- mass density ([1]; 333.15 K): 1357.35 ± 1.7 kg/m3
- viscosity ([1]; 338.15 K): 50.09 ± 0.51 mPa·s
- mass density ([1]; 338.15 K): 1353.06 ± 1.6 kg/m3
- viscosity ([1]; 343.15 K): 41.08 ± 0.52 mPa·s
- mass density ([1]; 343.15 K): 1348.77 ± 1.6 kg/m3
- viscosity ([1]; 348.15 K): 34.22 ± 0.43 mPa·s
- mass density ([1]; 348.15 K): 1344.52 ± 1.6 kg/m3
- Normal melting temperature ([1]; Crystal, DTA): 44.1 ± 0.39 °C
- Molar enthalpy of transition or fusion [2]: 15.2 ± 0.669 kcal/mol
